Measurements reported in patent US4728725A, “Retro-inverted peptides analogues of Bradykinin Potentiator BPP5a” (Enichem, S.p.A., priority 1984, dated 1988).
Where no end group is shown, it is not given here. [ ]: non-standard residue; d: D form. pGlu = O=C1CC[C@@H](C(=O)O)N1

How the values were obtained:
[1] = test system: angiotensin conversion enzyme and peptidases; experiment: Stability: resistance of peptides to angiotensin conversion enzyme and to peptidases; type: in vitro ADME; conditions: after 3 hours of incubation
Text: The stability of peptides of formula (B) and (C) has been verified by determining the resistance of said peptides to the angiotensin conversion enzyme and to peptidases.

[2] = target: T1, angiotensin conversion enzyme (Oryctolagus cuniculus, UniProt P12822); experiment: Inhibition of angiotensin conversion enzyme in vitro (method of Cushman and Cheung); type: biochemical; conditions: enzyme isolated from rabbit lungs; read-out: I50
T1 construct: with the enzyme isolated from rabbit lungs; from tissue; host or cells: rabbit lungs
T1 sequence (P12822 34-1310): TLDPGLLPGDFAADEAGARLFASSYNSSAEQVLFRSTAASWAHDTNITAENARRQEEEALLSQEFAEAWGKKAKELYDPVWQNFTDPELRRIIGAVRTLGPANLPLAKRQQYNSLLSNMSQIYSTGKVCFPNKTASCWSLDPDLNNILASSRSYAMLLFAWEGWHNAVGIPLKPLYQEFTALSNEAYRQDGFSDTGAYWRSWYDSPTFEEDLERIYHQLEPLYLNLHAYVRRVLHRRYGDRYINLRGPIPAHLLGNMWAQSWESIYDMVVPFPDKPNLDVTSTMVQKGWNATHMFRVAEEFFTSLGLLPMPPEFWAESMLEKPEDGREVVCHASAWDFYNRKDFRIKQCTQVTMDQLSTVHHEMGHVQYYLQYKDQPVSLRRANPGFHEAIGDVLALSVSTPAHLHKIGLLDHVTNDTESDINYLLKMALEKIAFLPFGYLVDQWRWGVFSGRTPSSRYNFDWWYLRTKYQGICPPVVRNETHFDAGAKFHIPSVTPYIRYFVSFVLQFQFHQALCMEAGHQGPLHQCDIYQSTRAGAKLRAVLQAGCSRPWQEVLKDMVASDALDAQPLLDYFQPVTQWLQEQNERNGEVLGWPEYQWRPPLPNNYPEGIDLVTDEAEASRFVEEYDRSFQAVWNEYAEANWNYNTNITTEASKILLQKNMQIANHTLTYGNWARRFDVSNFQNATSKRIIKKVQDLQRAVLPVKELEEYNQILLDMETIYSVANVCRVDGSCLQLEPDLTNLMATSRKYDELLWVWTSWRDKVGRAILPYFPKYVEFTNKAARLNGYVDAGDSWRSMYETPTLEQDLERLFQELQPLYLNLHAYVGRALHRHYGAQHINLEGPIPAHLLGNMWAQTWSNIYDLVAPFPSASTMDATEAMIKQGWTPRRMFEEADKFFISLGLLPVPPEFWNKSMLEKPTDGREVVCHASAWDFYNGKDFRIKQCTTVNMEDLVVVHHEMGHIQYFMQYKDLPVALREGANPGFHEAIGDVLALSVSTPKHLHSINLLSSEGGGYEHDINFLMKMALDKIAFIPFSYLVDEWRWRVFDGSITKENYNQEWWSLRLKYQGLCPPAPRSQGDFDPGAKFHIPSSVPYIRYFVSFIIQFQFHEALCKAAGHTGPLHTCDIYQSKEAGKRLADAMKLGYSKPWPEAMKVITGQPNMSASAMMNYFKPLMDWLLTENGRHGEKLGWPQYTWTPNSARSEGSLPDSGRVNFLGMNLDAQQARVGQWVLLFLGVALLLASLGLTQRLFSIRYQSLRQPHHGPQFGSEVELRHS
Procedure: The inhibition of angiotensin conversion enzyme by the compounds corresponding to general formula (I) is measured, in vitro, with the enzyme isolated from rabbit lungs according to the method by Cushman and Cheung [Biochem.-Pharmacol., 20, 1637, (1971)].
In Table 1 the values of I50 (μM) obtained by using the retroinverted analogues and natural not-modified peptide, which is used as the comparison term, are reported.

[3] = test system: angiotensin conversion enzyme; conditions: 15 minutes of preincubation with the enzyme; cited from earlier work

Row | Molecule | resistance towards enzymatic degradation [1] | IC50 [2] [µM] | loss of inhibiting activity [3]
1 | C[C@@H](C(=O)N[C@H](Cc1ccccc1)C(=O)N[C@H](CCCCN)C(=O)N[C@@H]1CCC(=O)N1)C(=O)N1C[C@@H](Sc2ccccc2)C[C@H]1C(=O)O [B, gGlp--Dlys--DPhe--(S)m Ala--Pro--(4-allo--SPh)--OH] | resistant | 7.5 | 
2 | Glp-Lys-Trp-Ala-Pro ([pGlu]KWAP) [BPP5a] |  |  | complete loss
